In PubChem BioAssay (NCI):
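Interpolation was linear, between the two tested concentrations surrounding the appropriate level; five concentrations were tested over 48 hours in 96-well plates. TGI: concentration producing complete growth inhibition.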

System: SNB-19 CNS
Assay: NCI tumour cell line growth inhibition, 48 h

Structure (SMILES)	TGI
COC(=O)/C=C/c1cc(OC)c(OC)c(OC)c1	> 100 µM
CN1CCN(C)C12C=c1ccccc1=CC21CC1	> 100 µM
CCCCN=C(NC#N)NCCCC	> 100 µM
O=C(/N=N/C(=O)OCc1ccccc1)OCc1ccccc1	> 100 µM

System: OVCAR-4 ovarian
Assay: NCI tumour cell line growth inhibition, 48 h

Structure (SMILES)	TGI
Cc1cccc(C)c1NC(=O)C(=O)C1C(=O)NC(=O)NC1=O	> 100 µM
O=C1/C(=C/c2ccccc2)CNC/C1=C\c1ccccc1	2.9 µM
COC(=O)/C=C/c1cc(OC)c(OC)c(OC)c1	> 100 µM
CN1CCN(C)C12C=c1ccccc1=CC21CC1	> 100 µM
CCCCN=C(NC#N)NCCCC	> 100 µM
O=C(/N=N/C(=O)OCc1ccccc1)OCc1ccccc1	> 100 µM

System: DU-145 prostate
Assay: NCI tumour cell line growth inhibition, 48 h

Structure (SMILES)	TGI
CN1CCN(C)C12C=c1ccccc1=CC21CC1	> 100 µM

System: SF-295 CNS
Assay: NCI tumour cell line growth inhibition, 48 h

Structure (SMILES)	TGI
Cc1cccc(C)c1NC(=O)C(=O)C1C(=O)NC(=O)NC1=O	> 100 µM
O=C1/C(=C/c2ccccc2)CNC/C1=C\c1ccccc1	5.25 µM
COC(=O)/C=C/c1cc(OC)c(OC)c(OC)c1	> 100 µM
CN1CCN(C)C12C=c1ccccc1=CC21CC1	> 100 µM
CCCCN=C(NC#N)NCCCC	> 100 µM
O=C(/N=N/C(=O)OCc1ccccc1)OCc1ccccc1	> 100 µM

System: UO-31 renal
Assay: NCI tumour cell line growth inhibition, 48 h

Structure (SMILES)	TGI
Cc1cccc(C)c1NC(=O)C(=O)C1C(=O)NC(=O)NC1=O	> 100 µM
O=C1/C(=C/c2ccccc2)CNC/C1=C\c1ccccc1	3.87 µM
COC(=O)/C=C/c1cc(OC)c(OC)c(OC)c1	> 100 µM
CN1CCN(C)C12C=c1ccccc1=CC21CC1	> 100 µM
CCCCN=C(NC#N)NCCCC	> 100 µM
O=C(/N=N/C(=O)OCc1ccccc1)OCc1ccccc1	> 100 µM

System: SK-OV-3 ovarian
Assay: NCI tumour cell line growth inhibition, 48 h

Structure (SMILES)	TGI
Cc1cccc(C)c1NC(=O)C(=O)C1C(=O)NC(=O)NC1=O	> 100 µM
O=C1/C(=C/c2ccccc2)CNC/C1=C\c1ccccc1	6.36 µM
COC(=O)/C=C/c1cc(OC)c(OC)c(OC)c1	> 100 µM
CN1CCN(C)C12C=c1ccccc1=CC21CC1	> 100 µM
CCCCN=C(NC#N)NCCCC	> 100 µM
O=C(/N=N/C(=O)OCc1ccccc1)OCc1ccccc1	> 100 µM

System: MDA-MB-435
Assay: NCI tumour cell line growth inhibition, 48 h

Structure (SMILES)	TGI
CN1CCN(C)C12C=c1ccccc1=CC21CC1	48.3 µM

System: ACHN renal
Assay: NCI tumour cell line growth inhibition, 48 h

Structure (SMILES)	TGI
Cc1cccc(C)c1NC(=O)C(=O)C1C(=O)NC(=O)NC1=O	> 100 µM
O=C1/C(=C/c2ccccc2)CNC/C1=C\c1ccccc1	4.37 µM
COC(=O)/C=C/c1cc(OC)c(OC)c(OC)c1	> 100 µM
CN1CCN(C)C12C=c1ccccc1=CC21CC1	> 100 µM
CCCCN=C(NC#N)NCCCC	> 100 µM
O=C(/N=N/C(=O)OCc1ccccc1)OCc1ccccc1	> 100 µM

System: SR leukemia
Assay: NCI tumour cell line growth inhibition, 48 h

Structure (SMILES)	TGI
Cc1cccc(C)c1NC(=O)C(=O)C1C(=O)NC(=O)NC1=O	> 100 µM
O=C1/C(=C/c2ccccc2)CNC/C1=C\c1ccccc1	0.536 µM
COC(=O)/C=C/c1cc(OC)c(OC)c(OC)c1	> 100 µM
CN1CCN(C)C12C=c1ccccc1=CC21CC1	63.2 µM
CCCCN=C(NC#N)NCCCC	> 100 µM

System: DMS 273 small cell lung
Assay: NCI tumour cell line growth inhibition, 48 h

Structure (SMILES)	TGI
Cc1cccc(C)c1NC(=O)C(=O)C1C(=O)NC(=O)NC1=O	> 100 µM
O=C1/C(=C/c2ccccc2)CNC/C1=C\c1ccccc1	2 µM
COC(=O)/C=C/c1cc(OC)c(OC)c(OC)c1	> 100 µM
CN1CCN(C)C12C=c1ccccc1=CC21CC1	> 100 µM
CCCCN=C(NC#N)NCCCC	> 100 µM
O=C(/N=N/C(=O)OCc1ccccc1)OCc1ccccc1	> 100 µM

System: 786-0 renal
Assay: NCI tumour cell line growth inhibition, 48 h

Structure (SMILES)	TGI
Cc1cccc(C)c1NC(=O)C(=O)C1C(=O)NC(=O)NC1=O	> 100 µM
O=C1/C(=C/c2ccccc2)CNC/C1=C\c1ccccc1	2.93 µM
COC(=O)/C=C/c1cc(OC)c(OC)c(OC)c1	> 100 µM
CN1CCN(C)C12C=c1ccccc1=CC21CC1	> 100 µM
CCCCN=C(NC#N)NCCCC	> 100 µM
O=C(/N=N/C(=O)OCc1ccccc1)OCc1ccccc1	> 100 µM

System: SF-268 CNS
Assay: NCI tumour cell line growth inhibition, 48 h

Structure (SMILES)	TGI
Cc1cccc(C)c1NC(=O)C(=O)C1C(=O)NC(=O)NC1=O	> 100 µM
O=C1/C(=C/c2ccccc2)CNC/C1=C\c1ccccc1	9.34 µM
COC(=O)/C=C/c1cc(OC)c(OC)c(OC)c1	> 100 µM
CN1CCN(C)C12C=c1ccccc1=CC21CC1	> 77 µM
CCCCN=C(NC#N)NCCCC	> 100 µM
O=C(/N=N/C(=O)OCc1ccccc1)OCc1ccccc1	> 100 µM

System: COLO 205 colon
Assay: NCI tumour cell line growth inhibition, 48 h

Structure (SMILES)	TGI
Cc1cccc(C)c1NC(=O)C(=O)C1C(=O)NC(=O)NC1=O	> 100 µM
O=C1/C(=C/c2ccccc2)CNC/C1=C\c1ccccc1	3.11 µM
COC(=O)/C=C/c1cc(OC)c(OC)c(OC)c1	> 100 µM
CN1CCN(C)C12C=c1ccccc1=CC21CC1	25.6 µM
CCCCN=C(NC#N)NCCCC	98.9 µM
O=C(/N=N/C(=O)OCc1ccccc1)OCc1ccccc1	> 100 µM

System: OVCAR-3 ovarian
Assay: NCI tumour cell line growth inhibition, 48 h

Structure (SMILES)	TGI
Cc1cccc(C)c1NC(=O)C(=O)C1C(=O)NC(=O)NC1=O	> 100 µM
O=C1/C(=C/c2ccccc2)CNC/C1=C\c1ccccc1	3.09 µM
COC(=O)/C=C/c1cc(OC)c(OC)c(OC)c1	> 100 µM
CN1CCN(C)C12C=c1ccccc1=CC21CC1	> 100 µM
CCCCN=C(NC#N)NCCCC	> 100 µM
O=C(/N=N/C(=O)OCc1ccccc1)OCc1ccccc1	> 100 µM

System: HOP-92 NSCLC
Assay: NCI tumour cell line growth inhibition, 48 h

Structure (SMILES)	TGI
Cc1cccc(C)c1NC(=O)C(=O)C1C(=O)NC(=O)NC1=O	> 100 µM
O=C1/C(=C/c2ccccc2)CNC/C1=C\c1ccccc1	22.1 µM
COC(=O)/C=C/c1cc(OC)c(OC)c(OC)c1	> 100 µM
CN1CCN(C)C12C=c1ccccc1=CC21CC1	79.5 µM
CCCCN=C(NC#N)NCCCC	> 100 µM
O=C(/N=N/C(=O)OCc1ccccc1)OCc1ccccc1	56.8 µM

System: HCT-15 colon
Assay: NCI tumour cell line growth inhibition, 48 h

Structure (SMILES)	TGI
Cc1cccc(C)c1NC(=O)C(=O)C1C(=O)NC(=O)NC1=O	> 100 µM
O=C1/C(=C/c2ccccc2)CNC/C1=C\c1ccccc1	2.76 µM
COC(=O)/C=C/c1cc(OC)c(OC)c(OC)c1	> 100 µM
CN1CCN(C)C12C=c1ccccc1=CC21CC1	73.6 µM
CCCCN=C(NC#N)NCCCC	> 100 µM
CCCCCCCCCCNC1CC(OC2CC(O)(C(O)CO)Cc3c(O)c4c(c(O)c32)C(=O)c2c(OC)cccc2C4=O)OC(C)C1O (configuration not stated)	4 µM
O=C(/N=N/C(=O)OCc1ccccc1)OCc1ccccc1	> 100 µM

System: MDA-N
Assay: NCI tumour cell line growth inhibition, 48 h

Structure (SMILES)	TGI
CN1CCN(C)C12C=c1ccccc1=CC21CC1	> 63.9 µM

System: NCI-H23 lung
Assay: NCI tumour cell line growth inhibition, 48 h

Structure (SMILES)	TGI
Cc1cccc(C)c1NC(=O)C(=O)C1C(=O)NC(=O)NC1=O	> 100 µM
O=C1/C(=C/c2ccccc2)CNC/C1=C\c1ccccc1	4.27 µM
COC(=O)/C=C/c1cc(OC)c(OC)c(OC)c1	> 100 µM
CN1CCN(C)C12C=c1ccccc1=CC21CC1	> 100 µM
CCCCN=C(NC#N)NCCCC	> 100 µM
CCCCCCCCCCNC1CC(OC2CC(O)(C(O)CO)Cc3c(O)c4c(c(O)c32)C(=O)c2c(OC)cccc2C4=O)OC(C)C1O (configuration not stated)	12.6 µM
O=C(/N=N/C(=O)OCc1ccccc1)OCc1ccccc1	> 100 µM
